Measurements as given in PubChem BioAssay (NCI).
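Five concentrations, 48 hours, 96-well plates. Here, GI50 denotes the concentration required for 50% inhibition of growth. Definition used: TGI = concentration required for complete inhibition of growth.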

Columns and labels:
Assay in all cases: NCI anticancer screen, dose series, 48 h
UACC-62 melanoma = tested on: UACC-62 melanoma
MDA-MB-231 breast = tested on: MDA-MB-231 breast
HT29 colon = tested on: HT29 colon
OVCAR-3 ovarian = tested on: OVCAR-3 ovarian
SR leukemia = tested on: SR leukemia
SNB-19 CNS = tested on: SNB-19 CNS
MCF7 breast = tested on: MCF7 breast
OVCAR-5 ovarian = tested on: OVCAR-5 ovarian
SW-620 colon = tested on: SW-620 colon
SF-295 CNS = tested on: SF-295 CNS
SK-MEL-28 melanoma = tested on: SK-MEL-28 melanoma
NCI-H226 lung = tested on: NCI-H226 lung
MDA-MB-435 = tested on: MDA-MB-435
A549 NSCLC = tested on: A549 NSCLC
HCT-116 colon = tested on: HCT-116 colon
TK-10 renal = tested on: TK-10 renal
HS 578T breast = tested on: HS 578T breast
EKVX NSCLC = tested on: EKVX NSCLC
OVCAR-4 ovarian = tested on: OVCAR-4 ovarian
SNB-75 CNS = tested on: SNB-75 CNS
CCRF-CEM leukemia = tested on: CCRF-CEM leukemia
SK-MEL-5 melanoma = tested on: SK-MEL-5 melanoma
HL-60(TB) leukemia = tested on: HL-60(TB) leukemia
PC-3 prostate = tested on: PC-3 prostate
ACHN renal = tested on: ACHN renal
HOP-62 NSCLC = tested on: HOP-62 NSCLC
M14 melanoma = tested on: M14 melanoma
COLO 205 colon = tested on: COLO 205 colon
NCI-H460 lung = tested on: NCI-H460 lung
MOLT-4 leukemia = tested on: MOLT-4 leukemia
NCI-H23 lung = tested on: NCI-H23 lung
SN12C renal = tested on: SN12C renal
LOX IMVI melanoma = tested on: LOX IMVI melanoma
UACC-257 melanoma = tested on: UACC-257 melanoma
SK-OV-3 ovarian = tested on: SK-OV-3 ovarian
SK-MEL-2 melanoma = tested on: SK-MEL-2 melanoma
UO-31 renal = tested on: UO-31 renal
HOP-92 NSCLC = tested on: HOP-92 NSCLC
CAKI-1 renal = tested on: CAKI-1 renal
BT-549 breast = tested on: BT-549 breast
DU-145 prostate = tested on: DU-145 prostate
U251 CNS = tested on: U251 CNS
RXF 393 renal = tested on: RXF 393 renal
SF-539 CNS = tested on: SF-539 CNS
SF-268 CNS = tested on: SF-268 CNS
K-562 leukemia = tested on: K-562 leukemia
HCT-15 colon = tested on: HCT-15 colon
786-0 renal = tested on: 786-0 renal
MALME-3M melanoma = tested on: MALME-3M melanoma
KM12 colon = tested on: KM12 colon
T-47D breast = tested on: T-47D breast
IGROV1 ovarian = tested on: IGROV1 ovarian
NCI/ADR-RES ovarian = tested on: NCI/ADR-RES ovarian
OVCAR-8 ovarian = tested on: OVCAR-8 ovarian
NCI-H522 lung = tested on: NCI-H522 lung
HCC-2998 colon = tested on: HCC-2998 colon
A498 renal = tested on: A498 renal
RPMI-8226 leukemia = tested on: RPMI-8226 leukemia

O=C(CSCC(=O)N/N=C\c1cc(Cl)cc(Cl)c1O)N/N=C\c1cc(Cl)cc(Cl)c1O
TGI (UACC-62 melanoma): 13.7 µM
TGI (MDA-MB-231 breast): 13.5 µM
TGI (HT29 colon): 22.3 µM
TGI (OVCAR-3 ovarian): 6.83 µM
TGI (SR leukemia): 11 µM
TGI (SNB-19 CNS): > 100 µM
TGI (MCF7 breast): 34.5 µM
TGI (OVCAR-5 ovarian): 22.9 µM
TGI (SW-620 colon): 16.2 µM
TGI (SF-295 CNS): 21 µM
TGI (SK-MEL-28 melanoma): 18.9 µM
TGI (NCI-H226 lung): 15 µM
TGI (MDA-MB-435): 21.1 µM
TGI (A549 NSCLC): 32.8 µM
TGI (HCT-116 colon): 12.8 µM
TGI (TK-10 renal): 21 µM
TGI (HS 578T breast): 20.1 µM
TGI (EKVX NSCLC): 28.3 µM
TGI (OVCAR-4 ovarian): 19.1 µM
TGI (SNB-75 CNS): 36 µM
TGI (CCRF-CEM leukemia): 0.748 µM
TGI (SK-MEL-5 melanoma): 16.3 µM
TGI (HL-60(TB) leukemia): 13.9 µM
TGI (PC-3 prostate): 18.5 µM
TGI (ACHN renal): 11.7 µM
TGI (HOP-62 NSCLC): 18.3 µM
TGI (M14 melanoma): 17.5 µM
TGI (COLO 205 colon): 20.4 µM
TGI (NCI-H460 lung): 42.8 µM
TGI (MOLT-4 leukemia): 8.81 µM
TGI (NCI-H23 lung): 22.9 µM
TGI (SN12C renal): 16.2 µM
TGI (LOX IMVI melanoma): 10.8 µM
TGI (UACC-257 melanoma): 18.2 µM
TGI (SK-OV-3 ovarian): 24 µM
TGI (SK-MEL-2 melanoma): 12.9 µM
TGI (UO-31 renal): 17.5 µM
TGI (HOP-92 NSCLC): 31.4 µM
TGI (CAKI-1 renal): 15 µM
TGI (BT-549 breast): 25.8 µM
TGI (DU-145 prostate): 21.1 µM
TGI (U251 CNS): 6.61 µM
TGI (RXF 393 renal): > 100 µM
TGI (SF-539 CNS): 11.1 µM
TGI (SF-268 CNS): 15.7 µM
TGI (K-562 leukemia): 12.7 µM
TGI (HCT-15 colon): 12.9 µM
TGI (786-0 renal): 20 µM
TGI (MALME-3M melanoma): 8.02 µM
TGI (KM12 colon): 19.7 µM
TGI (T-47D breast): 27.9 µM
TGI (IGROV1 ovarian): 15.3 µM
TGI (NCI/ADR-RES ovarian): 12.5 µM
TGI (OVCAR-8 ovarian): 14.3 µM
TGI (NCI-H522 lung): 6.59 µM

CC/C(=C(\c1ccc(Cl)cc1)c1ccc(OCCN2CCCCC2)cc1)c1ccc(O)cc1
GI50 (UACC-62 melanoma): 1.71 µM
TGI (UACC-62 melanoma): 3.25 µM
GI50 (MDA-MB-231 breast): 1.81 µM
TGI (MDA-MB-231 breast): 3.29 µM
GI50 (HT29 colon): 2.19 µM
TGI (HT29 colon): 5.09 µM
GI50 (OVCAR-3 ovarian): 1.91 µM
TGI (OVCAR-3 ovarian): 3.63 µM
GI50 (SR leukemia): 1.9 µM
TGI (SR leukemia): 4.51 µM
GI50 (SNB-19 CNS): 1.9 µM
TGI (SNB-19 CNS): 3.54 µM
GI50 (MCF7 breast): 0.0622 µM
TGI (MCF7 breast): 2.63 µM
GI50 (OVCAR-5 ovarian): 1.86 µM
TGI (OVCAR-5 ovarian): 4.04 µM
GI50 (SW-620 colon): 1.75 µM
TGI (SW-620 colon): 3.42 µM
GI50 (SF-295 CNS): 1.72 µM
TGI (SF-295 CNS): 3.13 µM
GI50 (SK-MEL-28 melanoma): 1.77 µM
TGI (SK-MEL-28 melanoma): 3.33 µM
GI50 (NCI-H226 lung): 1.85 µM
TGI (NCI-H226 lung): 4.34 µM
GI50 (MDA-MB-435): 1.72 µM
TGI (MDA-MB-435): 3.2 µM
GI50 (HCC-2998 colon): 1.85 µM
TGI (HCC-2998 colon): 3.46 µM
GI50 (A549 NSCLC): 1.81 µM
TGI (A549 NSCLC): 3.7 µM
GI50 (HCT-116 colon): 1.98 µM
TGI (HCT-116 colon): 4.26 µM
GI50 (TK-10 renal): 1.96 µM
TGI (TK-10 renal): 4.58 µM
GI50 (HS 578T breast): 1.78 µM
TGI (HS 578T breast): 4.51 µM
GI50 (EKVX NSCLC): 1.91 µM
TGI (EKVX NSCLC): 4.35 µM
GI50 (A498 renal): 3.31 µM
TGI (A498 renal): 16.5 µM
GI50 (OVCAR-4 ovarian): 1.97 µM
TGI (OVCAR-4 ovarian): 4.35 µM
GI50 (SNB-75 CNS): 1.49 µM
TGI (SNB-75 CNS): 3.64 µM
GI50 (CCRF-CEM leukemia): 1.91 µM
TGI (CCRF-CEM leukemia): 4.93 µM
GI50 (RPMI-8226 leukemia): 1.86 µM
TGI (RPMI-8226 leukemia): 4.1 µM
GI50 (SK-MEL-5 melanoma): 1.68 µM
TGI (SK-MEL-5 melanoma): 3.04 µM
GI50 (HL-60(TB) leukemia): 1.91 µM
TGI (HL-60(TB) leukemia): 4.17 µM
GI50 (PC-3 prostate): 1.66 µM
TGI (PC-3 prostate): 3.36 µM
GI50 (ACHN renal): 1.7 µM
TGI (ACHN renal): 3.08 µM
GI50 (HOP-62 NSCLC): 1.77 µM
TGI (HOP-62 NSCLC): 3.48 µM
GI50 (M14 melanoma): 1.88 µM
TGI (M14 melanoma): 3.77 µM
GI50 (COLO 205 colon): 1.82 µM
TGI (COLO 205 colon): 3.86 µM
GI50 (NCI-H460 lung): 1.82 µM
TGI (NCI-H460 lung): 3.37 µM
GI50 (MOLT-4 leukemia): 1.76 µM
TGI (MOLT-4 leukemia): 4.43 µM
GI50 (NCI-H23 lung): 1.88 µM
TGI (NCI-H23 lung): 3.84 µM
GI50 (SN12C renal): 1.69 µM
TGI (SN12C renal): 3.23 µM
GI50 (LOX IMVI melanoma): 1.67 µM
TGI (LOX IMVI melanoma): 3.03 µM
GI50 (UACC-257 melanoma): 1.83 µM
TGI (UACC-257 melanoma): 3.94 µM
GI50 (SK-OV-3 ovarian): 2.01 µM
TGI (SK-OV-3 ovarian): 4.88 µM
GI50 (UO-31 renal): 1.37 µM
TGI (UO-31 renal): 2.66 µM
GI50 (HOP-92 NSCLC): 1.5 µM
TGI (HOP-92 NSCLC): 3.2 µM
GI50 (BT-549 breast): 2.06 µM
TGI (BT-549 breast): 4.2 µM
GI50 (DU-145 prostate): 1.87 µM
TGI (DU-145 prostate): 3.58 µM
GI50 (U251 CNS): 1.6 µM
TGI (U251 CNS): 3.16 µM
GI50 (RXF 393 renal): 1.45 µM
TGI (RXF 393 renal): 2.92 µM
GI50 (SF-539 CNS): 1.7 µM
TGI (SF-539 CNS): 3.11 µM
GI50 (SF-268 CNS): 1.75 µM
TGI (SF-268 CNS): 3.8 µM
GI50 (K-562 leukemia): 1.6 µM
TGI (K-562 leukemia): 4.62 µM
GI50 (HCT-15 colon): 1.61 µM
TGI (HCT-15 colon): 3.15 µM
GI50 (786-0 renal): 1.81 µM
TGI (786-0 renal): 3.43 µM
GI50 (MALME-3M melanoma): 1.75 µM
TGI (MALME-3M melanoma): 3.33 µM
GI50 (KM12 colon): 1.9 µM
TGI (KM12 colon): 3.74 µM
GI50 (T-47D breast): 1.22 µM
TGI (T-47D breast): 3.83 µM
GI50 (IGROV1 ovarian): 1.91 µM
TGI (IGROV1 ovarian): 3.94 µM
GI50 (NCI/ADR-RES ovarian): 1.75 µM
TGI (NCI/ADR-RES ovarian): 3.8 µM
GI50 (OVCAR-8 ovarian): 2.11 µM
TGI (OVCAR-8 ovarian): 5.2 µM
GI50 (NCI-H522 lung): 2.01 µM
TGI (NCI-H522 lung): 4.44 µM
